We go through 2 molecules from publication PMC4057637, “Efficacy of novel antibacterial compounds targeting histidine kinase YycG protein” (Applied Microbiology and Biotechnology, 2014).

The test system of the test is 24-h biofilms of S. epidermidis ATCC 35984. Briefly: Rabbit subcutaneous S. epidermidis biofilm infection model. The conditions noted are these: 6.3 μM (4 × MIC), 1 ml local injection at 0, 24, 48 h; 72 h exposure. In kind it is in vivo, New Zealand White rabbits. On the procedure:
To test the effectiveness in vivo of H2-74 and H2-81, 24-h biofilms of S. epidermidis grown on polyethylene disks were imbedded subcutaneously into the New Zealand White rabbits and treated with the derivatives for 72 h in a modification of the method used previously (He et al. [2011]). Disks were cut from polyethylene 96-well plates (8 mm diameter, 1 mm thickness), sterilized with 75 % ethanol and placed in a Petri dish (100 mm diameter). An overnight culture of S. epidermidis ATCC 35984 (20 ml) was inoculated into the dish and incubated at 37 °C for 24 h. The disks covered with biofilms were then implanted subcutaneously in female New Zealand White rabbits (2.0–2.5 kg) that had been anesthetized with pentobarbital sodium (5 mg/kg i.v.). Four incisions (10 mm) were made on the back of the rabbit along the spine bilaterally after removal of fur, and the sub cutis was carefully dissected to form a 2-cm × 3-cm cavity. Two biofilm-covered polyethylene disks were implanted into each cavity, and to minimize the effect of between-animal variation, four different treatments were given locally to each rabbit.
Vancomycin (128 mg/l) and 0.1 % DMSO were administered as the controls. Twenty-four hours after the last treatment, the rabbits were euthanized and the implants were taken out with sterile forceps. Biofilms were scraped from the disks, and the viable bacteria were determined by CFU counting, as previously described (He et al. [2011]). All animals were housed and used in compliance with the guidelines of the Institute of Animal Care and Use Committee, and the protocol was approved by the committee.

SMILES strings stand for the structures.

Take `O=C(O)c1ccc(-c2ccc(/C=C3\S/C(=N\c4ccccc4)N(c4ccc(F)cc4)C3=O)s2)cc1` [H2-81, 4-{5-{{3-(4-fluorophenyl)-2-[(4-phenyl)imino]-4-oxothiazolidin-5-ylidene}methyl}thiophene-2-yl}benzoic acid]: the “viable bacteria recovered from implanted disks” value is given as 2.18 log10 CFU/cm^2.

For the molecule `O=C(O)COc1ccc(C=C2SC(=Nc3ccc(Cl)cc3)N(c3ccc(Cl)cc3)C2=O)cc1` [H2-74, 2-{4-{[3-(4-chlorophenyl)-2-[(4-chlorophenyl)imino]-4-oxothiazolidin-5-ylidene}methyl}phenoxy}acetic acid], the “viable bacteria recovered from implanted disks” value is given as 2.91 ± 0.42 log10 CFU/cm^2.
